Assay results taken from patent US11779536B2 (Ocular Therapeutix, Inc., priority 2020, dated 2023).
Several values for one entry are separate records, joined by “and”; a condition that tells them apart may be missing. Identical values can stand only once. Like-named read-outs stand apart in the source and are kept apart here.

Key:
[1] = Proof of concept PK study Example 3.2: cyclosporine tear fluid concentration and drug released from inserts; format: in vivo, beagle dogs; settings: beagle, insert nominal dose 0.44 mg, over 32 days, assuming consistent daily release
From the text: Inserts were removed at 32 days to determine the amount of remaining drug compared to the administered dose.

[2] = beagle, insert nominal dose 0.7 mg, in 6 weeks
[3] = for Cyclosporine per insert Mean ± SD: initial 671±13 μg; for Cyclosporine per insert, OD: 0.67 mg insert (initial 671±13 μg), 9% 4a20K SG/trilysine

Compound: CC=CCC(C)C(O)C1C(=O)NC(CC)C(=O)N(C)CC(=O)N(C)C(CC(C)C)C(=O)NC(C(C)C)C(=O)N(C)C(CC(C)C)C(=O)NC(C)C(=O)NC(C)C(=O)N(C)C(CC(C)C)C(=O)N(C)C(CC(C)C)C(=O)N(C)C(C(C)C)C(=O)N1C (centres unmarked) [cyclosporine, 30-ethyl-33-(1-hydroxy-2-methylhex-4-enyl)-1,4,7,10,12,15,19,25,28-nonamethyl-6,9,18,24-tetrakis(2-methylpropyl)-3,21-di(propan-2-yl)-1,4,7,10,13,16,19,22,25,28,31-undecazacyclotritriacontane-2,5,8,11,14,17,20,23,26,29,32-undecone]
- estimated daily delivered dose [1]: 6.3 µg/day
- average amount of cyclosporine released [2]: 0.37 mg
- Cyclosporine per insert Mean ± SD ([3]; amount left in inserts removed from beagles at day 28, all eyes): 576 ± 18 µg
- Cyclosporine per insert Mean ± SD ([3]; amount left in inserts removed from beagles at day 50, all eyes): 494 ± 32 µg
- Cyclosporine per insert, OD ([3]; amount left in single insert removed from beagle right eye at day 28): 596 µg
- Cyclosporine per insert, OD ([3]; amount left in single insert removed from beagle right eye at day 50): 520 µg and 521 µg and 451 µg
- released amount ([3]; beagle, initial dose 671±13 μg, 28 days): 3.4 µg
- released amount ([3]; beagle, initial dose 671±13 μg, 50 days): 3.5 µg
- amount of cyclosporine left in the removed insert ([3]; beagle, initial dose 671±13 μg, inserts removed at 28 days): 576 ± 18 µg
- amount of cyclosporine left in the removed insert ([3]; beagle, initial dose 671±13 μg, inserts removed at 50 days): 494 ± 32 µg
- daily estimated delivered dose ([3]; beagle, initial dose 671±13 μg, over 28 and 50 days): approximately 3.5 μg/day
